How the values were obtained:
[1] = tested on: IL-2 in activated CD4+ human T-cells; assay: IL-2 inhibition in supernatants from activated CD4+ human T-cells (cisbio HTRF); format: cell-based; conditions: T-cell; geometric mean of count n; CD3/CD28-expanded human CD4+ T cells stimulated with ImmunoCult, 20 to 24 hrs
Protocol: IL-2-Inhibition Activity, IC50 (uM)
IL-2 inhibition activity in supernatants from activated CD4+ human T-cells was determined by measuring the effect of a test compound on the activity using the cisbio HTRF™ technology.
Human CD4+ T cells were activated with CD3/CD28 for 3 days and expanded for an additional 4-6 days (7 to 9 days total). On day 0, frozen CD4+ T cells were thawed, treated with CD3/CD28 Dynabeads, and incubated at 37° C./5% CO2. On day 3, the beads were removed, and the cells were diluted to 5×10^5 cells/cm^2, placed in G-Rex10 flask, and incubated at 37° C./5% CO2. On day 7 to day 9 the cells were removed from the G-Rex flasks, counted and diluted back to 1×10^6 cells/ml in standard tissue culture flask.
The expanded CD4+ T-cells were centrifuged at 300×g for 10 minutes and resuspended to 0.5 million cells per ml (30,000 cells/well). 60 μl of CD4+ T cells were added per well to a 384 well plate containing 0.1 μL of varying concentrations of test compound in DMSO. The plates were incubated for 15 min at 37° C./5% CO2. 20 μl of diluted ImmunoCult™ ([…] Technologies, 1:12.5 in T cell assay media) were added to all wells of the plate (1:50 final assay concentration). The plates were incubated for an additional 20 to 24 hrs at 37° C./5% CO2. The plates were centrifuged at 300×g for 10 minutes. 16 μL of supernatant was removed and combined with 4 μl of IL-2 HTRF Abs. (cisbio kit). Plates were incubated for 3 hours at RT and read with an EnVision plate reader at 665 nm and 615 nm wavelengths.

[2] = molecular target: Tropomyosin receptor kinase A (TRKA, NTRK1) (Homo sapiens (Human), UniProt P04629); assay: TRKA (NTRK1) enzyme Z'-LYTE assay; format: biochemical; conditions: arithmetic mean of count n; test compound 1 uM, ATP 1 mM
Sequence of Tropomyosin receptor kinase A (TRKA, NTRK1) (P04629 33-796): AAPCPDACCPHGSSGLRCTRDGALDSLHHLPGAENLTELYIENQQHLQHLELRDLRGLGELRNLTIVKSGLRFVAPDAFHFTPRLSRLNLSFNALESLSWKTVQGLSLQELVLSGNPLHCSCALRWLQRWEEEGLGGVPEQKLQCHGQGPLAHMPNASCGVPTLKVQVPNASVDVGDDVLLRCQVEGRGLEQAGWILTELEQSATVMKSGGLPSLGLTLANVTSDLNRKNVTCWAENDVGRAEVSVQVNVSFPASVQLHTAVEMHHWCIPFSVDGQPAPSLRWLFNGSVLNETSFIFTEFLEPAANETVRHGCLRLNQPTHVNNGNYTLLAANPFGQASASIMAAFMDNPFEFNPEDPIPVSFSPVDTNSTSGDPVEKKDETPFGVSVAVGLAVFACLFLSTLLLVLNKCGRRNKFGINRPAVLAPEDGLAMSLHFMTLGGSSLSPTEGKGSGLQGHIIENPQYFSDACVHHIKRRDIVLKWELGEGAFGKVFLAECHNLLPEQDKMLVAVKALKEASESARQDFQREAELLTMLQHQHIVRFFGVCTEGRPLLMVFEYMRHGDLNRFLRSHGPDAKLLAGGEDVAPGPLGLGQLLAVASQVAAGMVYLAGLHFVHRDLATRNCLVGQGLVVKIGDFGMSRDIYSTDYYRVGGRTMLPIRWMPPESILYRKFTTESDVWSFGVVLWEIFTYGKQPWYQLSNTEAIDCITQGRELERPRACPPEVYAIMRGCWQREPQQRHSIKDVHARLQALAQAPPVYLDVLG
Protocol: Tropomyosin Receptor Kinase a (TRKA) Activity, % Inhibition
TRKA, also known as neurotrophic tyrosine kinase receptor type 1 (NTKR1) activity was determined by measuring the effect of a test compound on the activity against the NTRK1 enzyme using the ThermoFisher Z'-LYTE Assay fluorescence-based coupled enzyme format (www.thermofisher.com/selectscreen). […] The resulting effect value for the tested compound was compared to the assay controls to determine the % inhibition (%).

Structure (SMILES) | IC50 [1] [nM] | inhibition at 1 µM [2] [%]
C[C@@H](C(=O)N(C)c1ccc2[nH]c(-c3n[nH]c4c3C[C@@H]3C(F)(F)[C@]3(C)C4)nc2c1)N1CCOCC1 [Example 13, (S)—N-(2-((4aS,5aR)-5,5-difluoro-5a-methyl-1,4,4a,5,5a,6-hexahydrocyclopropa[f]indazol-3-yl)-1H-benzo[d]imidazol-5-yl)-N-methyl-2-morpholinopropanamide] | 3 | 99
C[C@@H](C(=O)N(C)c1cc(F)c2[nH]c(-c3n[nH]c4c3C[C@@H]3C[C@]3(C)C4)nc2c1)N1CCOCC1 [Example 15, (S)—N-(7-fluoro-2-((4aS,5aR)-5a-methyl-1,4,4a,5,5a,6-hexahydrocyclopropa[f]indazol-3-yl)-1H-benzo[d]imidazol-5-yl)-N-methyl-2-morpholinopropanamide] | 42 | 107
COCCOc1cc2[nH]c(-c3n[nH]c4c3C[C@@H]3C[C@]3(C)C4)nc2cc1N(C)C(=O)[C@H](C)N1CCOCC1 [Example 49, (S)—N-(6-(2-methoxyethoxy)-2-((4aS,5aR)-5a-methyl-1,4,4a,5,5a,6-hexahydrocyclopropa[f]indazol-3-yl)-1H-benzo[d]imidazol-5-yl)-N-methyl-2-morpholinopropanamide] | 100 | 98
COc1cc2[nH]c(-c3n[nH]c4c3C[C@@H]3C[C@]3(C)C4)nc2cc1N(C)C(=O)[C@H](C)N1CCOCC1 [Example 19, (S)—N-(6-methoxy-2-((4aS,5aR)-5a-methyl-1,4,4a,5,5a,6-hexahydrocyclopropa[f]indazol-3-yl)-1H-benzo[d]imidazol-5-yl)-N-methyl-2-morpholinopropanamide] | 57 | 98
Cc1cc2[nH]c(-c3n[nH]c4c3C[C@@H]3C[C@]3(C)C4)nc2cc1N(C)C(=O)CN1CCO[C@H](CO)C1 [Example 26, 2-((S)-2-(hydroxymethyl)morpholino)-N-methyl-N-(6-methyl-2-((4aS,5aR)-5a-methyl-1,4,4a,5,5a,6-hexahydrocyclopropa[f]indazol-3-yl)-1H-benzo[d]imidazol-5-yl)acetamide] | 212 | 99
Cc1cc(N(C)C(=O)[C@H](C)N2CCOCC2)cc2nc(-c3n[nH]c4c3C[C@@H]3C[C@]3(C)C4)[nH]c12 [Example 50, (S)—N-methyl-N-(7-methyl-2-((4aS,5aR)-5a-methyl-1,4,4a,5,5a,6-hexahydrocyclopropa[f]indazol-3-yl)-1H-benzo[d]imidazol-5-yl)-2-morpholinopropanamide] | 126 | 97
C[C@@H](C(=O)N(C)c1cc(C(F)F)c2[nH]c(-c3n[nH]c4c3C[C@@H]3C[C@]3(C)C4)nc2c1)N1CCOCC1 [Example 48, (S)—N-(7-(difluoromethyl)-2-((4aS,5aR)-5a-methyl-1,4,4a,5,5a,6-hexahydrocyclopropa[f]indazol-3-yl)-1H-benzo[d]imidazol-5-yl)-N-methyl-2-morpholinopropanamide] | 207 | 95
Cc1c(F)c(N(C)C(=O)[C@H](C)N2CCOCC2)cc2nc(-c3n[nH]c4c3C[C@@H]3C[C@]3(C)C4)[nH]c12 [Example 47, (S)—N-(6-fluoro-7-methyl-2-((4aS,5aR)-5a-methyl-1,4,4a,5,5a,6-hexahydrocyclopropa[f]indazol-3-yl)-1H-benzo[d]imidazol-5-yl)-N-methyl-2-morpholinopropanamide] | 161 | 98
C[C@@H](C(=O)N(C)c1cc(C#N)c2[nH]c(-c3n[nH]c4c3C[C@@H]3C[C@]3(C)C4)nc2c1)N1CCOCC1 [Example 38, (S)—N-(7-cyano-2-((4aS,5aR)-5a-methyl-1,4,4a,5,5a,6-hexahydrocyclopropa[f]indazol-3-yl)-1H-benzo[d]imidazol-5-yl)-N-methyl-2-morpholinopropanamide] | 85 | 96
Cc1cc(N(C)C(=O)[C@H](C)N2CCOCC2)cc2nc(-c3n[nH]c4c3C[C@@H]3C(F)(F)[C@]3(C)C4)[nH]c12 [Example 51, (S)—N-(2-((4aS,5aR)-5,5-difluoro-5a-methyl-1,4,4a,5,5a,6-hexahydrocyclopropa[f]indazol-3-yl)-7-methyl-1H-benzo[d]imidazol-5-yl)-N-methyl-2-morpholinopropanamide] | 19 | 97
C[C@@H](C(=O)N(C)c1cc2nc(-c3n[nH]c4c3C[C@@H]3C[C@]3(C)C4)[nH]c2c(F)c1F)N1CCOCC1 [Example 24, (S)—N-(6,7-difluoro-2-((4aS,5aR)-5a-methyl-1,4,4a,5,5a,6-hexahydrocyclopropa[f]indazol-3-yl)-1H-benzo[d]imidazol-5-yl)-N-methyl-2-morpholinopropanamide] | 106 | 105

Reference: patent US11661419B2, “Benzimidazole derivative compounds and uses thereof” (Pfizer Inc., priority 2019, dated 2023)
